Where “and” joins values, the source holds several entries; their conditions need not be identical. Equal values may be shown once.
Legend:
mice with blast injury = test: Morris water maze after blast injury (shock tube blast model); type: in vivo, mouse
Experimental: Another experimental procedure for measuring neurological deficits was developed using a Morris water maze. The procedure used a black aluminum pool containing a movable platform (7.5 cm diameter) and filled with 25-27° C. water opacified with powdered milk. Each training or testing session consisted of four trials per day with an interval of 20-30 minutes between trials. One day before testing, mice were trained using a visible platform (platform flagged and located in a different quadrant each trial to minimize quadrant habituation, no extra-maze visual cues) to habituate the mice to handling and swimming and to teach the mice the goal of the test-escaping the water by climbing on the platform. […] Latency to finding the platform and swimming speed were recorded using a computerized video tracking system (Ethovision 2.2.14; available from Noldus Information Technology, Leesburg VA). […]
The shock tube was mounted vertically on an extruded aluminum frame using three vibration-damping U-bolts. […] Peak incident overpressure, positive-phase duration, and peak incident impulse were recorded in the three end-tube PTs for each test (data not shown). […] Atmospheric conditions (temperature, barometric pressure, humidity) were recorded prior to each test. […]

[1] = Mouse brain PK of VSRRR (CNS penetration) by LC/MS; type: in vivo; details: for Brain Pilot, Ratio to Heavy / Brain Pilot, fmol/mg (tissue) / Brain Pilot, pg/mg (tissue): individual mouse brains, single-point internal standard quantitation; for Single-Dosed Brain PK, fmol analyte/mg tissue / Single-Dosed Brain PK, pg/mg of tissue: single dose 0.8 mg/kg, average of 5 animals
Experimental: Mouse Brain PK on Therapeutic Peptide, VSRRR—Sample Preparation Procedure
Mice brains were weighed in a 1.5 mL Eppendorf tube. The entire brain was transferred to a 14 mL culture tube. 1 mL of 8 M urea in 50 mM ammonium formate (pH 10) with 2.5 pmol/mL SIL peptide per 100 mg wet tissue weight was added. For standard controls and QCs, 10 μL of peptide standard per every 100 mg of brain tissue (1%) was added with 990 μL of the aforementioned buffer to bring to a 1 mL total volume for every 100 mg of tissue. A tissue tearor was used on each sample for about 20 sec. 1.5 mL of the sample was transferred to a 2-mL Eppendorf tube. Each sample was probe sonicated for 3 bursts of 5 sec per burst. The sample was then heated at 37° C. for 30 min. The sample was centrifuged for 30 min at 15,000 rpm. Very little precipitate was visible at the bottom of each tube and avoided when pipetting 1 mL of the sample (out of 1.5 mL total volume) and placing directly onto an OASIS® plate. Salts and proteins were removed using the OASIS® HLB Solid Phase Extraction (SPE) protocol described above for the plasma sample. After the extraction, the samples were dried down in a Speed Vac and reconstitute in 25 μL of 1% ACN/0.1% TFA/0.02% HFBA. 3 μL of the sample was injected into a SYNAPT™ G2 HDMS™ (Waters Corp.) using Full Scan MS method, with a run time of 16.5 min total. Peptide(s) of interest were monitored between 3-8 min.
Table 5 and FIG. 10 show the average amount of peptide in the CNS sample from 5 animals over time after a single dosing of 0.8 mg/kg of the peptide.
The analyte concentrations were calculated from a single-point internal standard quantitation. […] The analyte concentrations were calculated from a 7-point standard curve calibration curve equation generated with samples between 1.4 pg analyte/mg tissue and 89.2 pg/mg (2× serial dilutions). The inter-animal reproducibility for the brain analyses is high ([…] 21% CV). The drug molecule in the single-dosed brain Cmax is about 9 pg analyte/mg tissue.

## Ac-VSRRR-NH2 [VR-55, Ac-VSRRR-NH2]
Mice with blast injury; FIG. 8, groups of 15
  neurocognitive deficit after blast injury (Morris water maze): reduces neurocognitive deficit after blast injury
Mice with blast injury; blast injury, vehicle 17.8±1.9 seconds, p=0.24
  time in the correct quadrant (probe trial): 21.8 ± 2.7 s
[1]; 3 min
  Brain Pilot, Ratio to Heavy: 0.245 and 0.371
  Brain Pilot, fmol/mg (tissue): 15 fmol/mg (tissue) and 23 fmol/mg (tissue)
  Brain Pilot, pg/mg (tissue): 11 pg/mg (tissue) and 17 pg/mg (tissue)
[1]; 10 min
  Brain Pilot, Ratio to Heavy: 0.157 and 0.435
  Brain Pilot, fmol/mg (tissue): 10 fmol/mg (tissue) and 27 fmol/mg (tissue)
  Brain Pilot, pg/mg (tissue): 7 pg/mg (tissue) and 19 pg/mg (tissue)
[1]; mouse brain, single dose
  single-dosed brain Cmax: about 9 pg analyte/mg tissue
[1]; mouse brain, 1 min
  Single-Dosed Brain PK, fmol analyte/mg tissue: 10.91 fmol analyte/mg tissue
  Single-Dosed Brain PK, pg/mg of tissue: 7.79 pg/mg of tissue
[1]; mouse brain, 3 min
  Single-Dosed Brain PK, fmol analyte/mg tissue: 12.30 fmol analyte/mg tissue
  Single-Dosed Brain PK, pg/mg of tissue: 8.79 pg/mg of tissue
[1]; mouse brain, 5 min
  Single-Dosed Brain PK, fmol analyte/mg tissue: 11.26 fmol analyte/mg tissue
  Single-Dosed Brain PK, pg/mg of tissue: 8.04 pg/mg of tissue
[1]; mouse brain, 10 min
  Single-Dosed Brain PK, fmol analyte/mg tissue: 11.83 fmol analyte/mg tissue
  Single-Dosed Brain PK, pg/mg of tissue: 8.44 pg/mg of tissue
[1]; mouse brain, 15 min
  Single-Dosed Brain PK, fmol analyte/mg tissue: 10.56 fmol analyte/mg tissue
  Single-Dosed Brain PK, pg/mg of tissue: 7.54 pg/mg of tissue
[1]; mouse brain, 30 min
  Single-Dosed Brain PK, fmol analyte/mg tissue: 8.87 fmol analyte/mg tissue
  Single-Dosed Brain PK, pg/mg of tissue: 6.33 pg/mg of tissue
[1]; mouse brain, 60 min
  Single-Dosed Brain PK, fmol analyte/mg tissue: 7.64 fmol analyte/mg tissue
  Single-Dosed Brain PK, pg/mg of tissue: 5.46 pg/mg of tissue
[1]; preliminary data, brain pilot
  CNS penetration: CNS penetration

From US12071469B2, “Peptide compounds for suppressing inflammation” (Duke University, priority 2011, dated 2024)
